This note sets out measurements from ChEMBL document CHEMBL2380215, “Development of cyclic peptomer inhibitors targeting the polo-box domain of polo-like kinase 1” (Bioorg Med Chem, 2013).

Assay [1] has as its target Serine/threonine-protein kinase PLK1 (Homo sapiens) (UniProt P53350). In words: Inhibition of HA-EGFP tagged Plk1 polo-box domain (unknown origin) expressed in 293A cells assessed as inhibition of biotin-p-T78 binding up to 150 uM after 1 hr by ELISA. The class given is cell-based. On the technique in general: An ELISA detects its analyte on a solid surface through an enzyme-linked reagent.

Assay [2] has as its target Serine/threonine-protein kinase PLK3 (Homo sapiens) (UniProt Q9H4B4). In words: Inhibition of Plk3 polo-box domain (unknown origin) assessed as inhibition of 5-carboxyfluorescein-Ahx-GPLATS-pT-PKNG binding after 10 mins by fluorescence polarization assay. Background: Polarisation of emitted light reports the rotation of a fluorescent probe.
The target in assay [3] is Serine/threonine-protein kinase PLK2 (Homo sapiens) (UniProt Q9NYY3). Nature of the assay: Inhibition of Plk2 polo-box domain (unknown origin) assessed as inhibition of 5-carboxyfluorescein-Ahx-GPMQTS-pT-PKNG binding after 10 mins by fluorescence polarization assay.

Calls of active or inactive are those of the source. The rule behind the calls is not given here.

Chain of Serine/threonine-protein kinase PLK1 (Homo sapiens) (P53350 whole entry, the tested form may be a part): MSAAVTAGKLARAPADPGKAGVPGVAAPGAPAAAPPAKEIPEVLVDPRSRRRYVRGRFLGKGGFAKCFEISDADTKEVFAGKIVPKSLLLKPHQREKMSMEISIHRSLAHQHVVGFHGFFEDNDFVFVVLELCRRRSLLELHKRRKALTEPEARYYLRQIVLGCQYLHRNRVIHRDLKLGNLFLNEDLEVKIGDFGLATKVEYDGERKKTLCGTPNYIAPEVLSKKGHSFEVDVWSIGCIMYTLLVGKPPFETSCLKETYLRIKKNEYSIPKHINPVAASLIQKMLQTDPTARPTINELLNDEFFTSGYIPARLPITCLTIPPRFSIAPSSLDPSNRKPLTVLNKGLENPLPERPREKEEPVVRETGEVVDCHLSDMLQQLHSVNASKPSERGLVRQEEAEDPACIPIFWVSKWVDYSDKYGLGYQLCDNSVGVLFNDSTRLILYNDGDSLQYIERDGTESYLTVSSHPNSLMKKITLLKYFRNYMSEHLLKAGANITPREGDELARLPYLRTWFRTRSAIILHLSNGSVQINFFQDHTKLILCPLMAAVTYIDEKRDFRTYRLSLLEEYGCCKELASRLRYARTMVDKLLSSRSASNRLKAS
Chain of Serine/threonine-protein kinase PLK2 (Homo sapiens) (Q9NYY3 whole entry, looked up, the tested form may be a part): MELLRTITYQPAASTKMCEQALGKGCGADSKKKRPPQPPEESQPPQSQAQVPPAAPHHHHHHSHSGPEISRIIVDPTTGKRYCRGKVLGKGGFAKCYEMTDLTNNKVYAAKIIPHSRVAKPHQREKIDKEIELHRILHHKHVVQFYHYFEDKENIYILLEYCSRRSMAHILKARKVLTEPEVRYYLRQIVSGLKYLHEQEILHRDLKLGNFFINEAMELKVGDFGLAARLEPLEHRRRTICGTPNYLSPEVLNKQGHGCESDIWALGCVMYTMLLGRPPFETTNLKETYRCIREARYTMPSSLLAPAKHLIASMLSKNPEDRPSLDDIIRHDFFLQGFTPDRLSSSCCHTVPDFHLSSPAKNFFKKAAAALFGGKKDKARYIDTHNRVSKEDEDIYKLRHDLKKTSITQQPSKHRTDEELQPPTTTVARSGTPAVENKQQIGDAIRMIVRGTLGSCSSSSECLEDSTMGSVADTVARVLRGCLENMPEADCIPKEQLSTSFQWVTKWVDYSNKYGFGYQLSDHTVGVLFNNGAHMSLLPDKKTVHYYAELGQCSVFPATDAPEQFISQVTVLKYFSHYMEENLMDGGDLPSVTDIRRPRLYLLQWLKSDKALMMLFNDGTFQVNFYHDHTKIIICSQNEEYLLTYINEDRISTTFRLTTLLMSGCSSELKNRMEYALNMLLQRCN
Chain of Serine/threonine-protein kinase PLK3 (Homo sapiens) (Q9H4B4 whole entry, looked up, the tested form may be a part): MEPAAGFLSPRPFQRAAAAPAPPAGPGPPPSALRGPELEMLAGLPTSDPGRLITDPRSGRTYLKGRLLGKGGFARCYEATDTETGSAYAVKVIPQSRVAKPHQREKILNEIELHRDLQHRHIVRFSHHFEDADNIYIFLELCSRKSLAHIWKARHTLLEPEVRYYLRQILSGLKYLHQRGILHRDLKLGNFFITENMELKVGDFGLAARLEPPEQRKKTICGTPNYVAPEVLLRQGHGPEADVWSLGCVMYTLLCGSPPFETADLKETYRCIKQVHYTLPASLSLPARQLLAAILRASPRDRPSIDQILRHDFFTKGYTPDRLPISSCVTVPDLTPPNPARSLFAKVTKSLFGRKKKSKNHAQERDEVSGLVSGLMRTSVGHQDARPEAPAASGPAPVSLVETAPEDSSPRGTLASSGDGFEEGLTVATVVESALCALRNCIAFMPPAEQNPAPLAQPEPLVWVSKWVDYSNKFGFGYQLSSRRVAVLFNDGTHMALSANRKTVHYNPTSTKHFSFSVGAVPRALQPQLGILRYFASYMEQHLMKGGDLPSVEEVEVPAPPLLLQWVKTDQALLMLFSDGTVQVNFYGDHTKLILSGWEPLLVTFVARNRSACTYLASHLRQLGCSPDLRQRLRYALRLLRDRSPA

Take `CC(=O)n1cc(CCNC(=O)CCN2CC(=O)N[C@@H](CC(C)C)C(=O)N[C@@H](Cc3c[nH]cn3)C(=O)N[C@@H](CO)C(=O)N[C@@H]([C@@H](C)OP(=O)(O)O)C(=O)N[C@@H](C(N)=O)CSCC2=O)c2ccccc21`: the inhibition result in assay [1] was “Active”.
Turning to `CC(=O)n1cc(CCNC(=O)CCCCCN2CC(=O)N[C@@H](CC(C)C)C(=O)N[C@@H](Cc3cncn3CCCCCCCCc3ccccc3)C(=O)N[C@@H](CO)C(=O)N[C@@H]([C@@H](C)OP(=O)(O)O)C(=O)N[C@@H](C(N)=O)CSCC2=O)c2ccccc21`, the inhibition entry in assay [2] and in assay [3] was “inactive” throughout.
Consider `CC(=O)n1cc(CCNC(=O)CCCCCN2CC(=O)N[C@@H](CC(C)C)C(=O)N[C@@H](Cc3c[nH]cn3)C(=O)N[C@@H](CO)C(=O)N[C@@H]([C@@H](C)OP(=O)(O)O)C(=O)N[C@@H](C(N)=O)CSCC2=O)c2ccccc21`, for which the inhibition entry in assay [2] and in assay [3] was “inactive” in each case.
Regarding `CC(=O)n1cc(CCNC(=O)CCCCN2CC(=O)N[C@@H](CC(C)C)C(=O)N[C@@H](Cc3c[nH]cn3)C(=O)N[C@@H](CO)C(=O)N[C@@H]([C@@H](C)OP(=O)(O)O)C(=O)N[C@@H](C(N)=O)CSCC2=O)c2ccccc21`, the inhibition result in assay [1] is “Active”.
